Results from patent publication US11459338B2, “Heterocyclic compounds as PRMT5 inhibitors” (JUBILANT EPISCRIBE LLC, priority 2018, dated 2022).

Legend:
[1] = target: T1, PRMT5/MEP50 (Homo sapiens, UniProt O14744); experiment: PRMT5/MEP50 enzyme assay on peptide substrates (3H-SAM Flashplate); type: biochemical; conditions: PRMT5/MEP50 10 nM, H4 1-15aa peptide 100 nM, 3H-SAM 1 μM
T1 construct: Full-length human PRMT5 (NP_006100)
Description: General materials like S-adenocylmethionine (SAM), S-adenosylhomocysteine (SAH), Tris-HCl, DTT, […] (BSA) and Tween-20 were purchased from Sigma-Aldrich. 3H-SAM and 384-well streptavidin Flashplates were purchased from Perkin Elmer. Substrates that were used were Peptide representative of human Histone 4 residues 1-15 which was purchased from Rockland antibodies and assays.
PRMT5/MEP50 Enzyme assay on Peptide Substrates.
The assays were all performed in a buffer consisting of 50 mMTris-HCl, pH 8, 1 mM DTT, 0.01% BSA, 0.01% Tween-20, prepared on the day of use. Test compounds were diluted 3-fold in assay buffer (final DMSO concentration of 1%) and added into a 384-well OptiPlate (PerkinElmer, #6007290). A cocktail (10 μL) of PRMT5/MEP50 enzyme and the peptide was added to the wells. The compounds were allowed to incubate with PRMT5/MEP50 for 30 min at room temperature, then 5 μL of ^3H-SAM was added to initiate the reaction. The final concentrations of the components were as follows: PRMT5/MEP50-10 nM, H4, 1-15aa peptide-100 nM, ^3H-SAM-1 μM. The assays were stopped by the addition of 1 mM SAH. 25 μL of the reaction from the 384-well OptiPlate was then transferred to a 384-well Flashplate and the biotinylated peptides were allowed to bind to the streptavidin surface for at least 1 h, before being washed twice with 50 mMTris-HCl, pH 8, 0.1% Tween-20. The plates were then read in a PerkinElmer Topcount plate reader to measure the quantity of ^3H-labeled peptide bound to the Flashplate surface measured as disintegrations per minute (dpm), also referred to as counts per minute (cpm).
The IC50 values were calculated using a 4-parameter variable slope fit algorithm (cpm—counts per minute, cmpd—signal in assay well, and cpmmax and cpmmin mare the respective minimum and maximum signal controls).

[2] = tested on: Z-138 cells; experiment: Z-138 long term proliferation assay (Cell Titer Glo); type: cell-based; conditions: Homo sapiens, 192 h; Z-138 cells, cell viability, day 8; read-out: PRMT5 Z138 GI50 Day 8 μM
Description: A compound source plate was prepared by performing ten-point 3-fold dilution in DMSO, such that the final top concentration of the compound was 10 μM, and DMSO was 0.3%. The total volume of compounds added was 20 μL. The cells were incubated for 96 h at 37° C., 5% CO2. […] The cells were re-treated with the compounds and incubated for an additional four days. Cell viability was measured on both day 4 and day 8, by adding 25 μL of Cell Titer Glo reagent to an equal volume of cell suspension. Luminescence was read on a PerkinElmer Victor3 multiplate reader. The concentration of compound inhibiting cell viability by 50% was determined using a 4-parameter, variable slope fit of the normalized dose response curves.

T1 sequence (O14744 whole entry): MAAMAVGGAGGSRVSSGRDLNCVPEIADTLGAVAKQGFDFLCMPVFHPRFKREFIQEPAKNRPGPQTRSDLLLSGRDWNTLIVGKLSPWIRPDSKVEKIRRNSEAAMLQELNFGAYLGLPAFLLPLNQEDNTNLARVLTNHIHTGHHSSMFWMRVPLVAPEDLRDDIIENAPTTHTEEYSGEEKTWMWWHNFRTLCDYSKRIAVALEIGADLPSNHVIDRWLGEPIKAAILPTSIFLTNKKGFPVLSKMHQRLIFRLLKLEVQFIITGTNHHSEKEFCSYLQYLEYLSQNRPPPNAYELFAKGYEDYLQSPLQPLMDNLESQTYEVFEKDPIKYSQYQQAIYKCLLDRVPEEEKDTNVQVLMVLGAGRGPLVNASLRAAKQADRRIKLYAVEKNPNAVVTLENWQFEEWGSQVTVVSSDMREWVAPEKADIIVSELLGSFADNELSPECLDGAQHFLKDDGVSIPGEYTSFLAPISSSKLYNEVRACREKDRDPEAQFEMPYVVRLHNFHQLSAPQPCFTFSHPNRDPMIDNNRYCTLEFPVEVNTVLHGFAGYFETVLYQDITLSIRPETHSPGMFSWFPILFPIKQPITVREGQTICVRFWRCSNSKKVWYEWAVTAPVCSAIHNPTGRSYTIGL
T1 sequence (Q9BQA1 whole entry partner): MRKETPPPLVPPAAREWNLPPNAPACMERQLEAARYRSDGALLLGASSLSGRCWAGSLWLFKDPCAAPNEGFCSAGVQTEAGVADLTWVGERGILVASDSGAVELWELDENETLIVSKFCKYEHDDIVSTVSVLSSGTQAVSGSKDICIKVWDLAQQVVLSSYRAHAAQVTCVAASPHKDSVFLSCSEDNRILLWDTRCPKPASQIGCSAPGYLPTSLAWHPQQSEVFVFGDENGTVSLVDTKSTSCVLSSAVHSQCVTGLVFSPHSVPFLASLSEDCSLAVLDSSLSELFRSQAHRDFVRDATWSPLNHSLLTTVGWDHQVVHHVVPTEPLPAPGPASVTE

| IC50 [1] [nM] | SMILES | GI50 [2] [nM] |
| --- | --- | --- |
| 10 to 1000 | O=C(NC[C@H](O)CN1CCc2ccccc2C1)c1cn2cc(N3CCC(F)C3)ccc2n1 (stereo partly drawn) [Example 70, N—((S)-3-(3,4-dihydroisoquinolin-2(1H)-yl)-2-hydroxypropyl)-6-(3-fluoropyrrolidin-1-yl)imidazo[1,2-a]pyridine-2-carboxamide] | 1000 to 5000 |
| 10 to 1000 | CC(=O)N1CCC(c2ccc3nc(C(=O)NCC(O)CNC4Cc5ccccc5C4)cn3c2)CC1 (stereo not drawn) [Example 98, 6-(1-acetylpiperidin-4-yl)-N-(3-((2,3-dihydro-1H-inden-2-yl)amino)-2-hydroxypropyl)imidazo[1,2-a]pyridine-2-carboxamide] | 10 to 1000 |
| 10 to 1000 | N#Cc1ccc(-c2cn3cc(C(=O)NC[C@H](O)CN4CCc5ccccc5C4)nc3cn2)cc1 [Example 74, (S)-6-(4-cyanophenyl)-N-(3-(3,4-dihydroisoquinolin-2(1H)-yl)-2-hydroxypropyl)imidazo[1,2-a]pyrazine-2-carboxamide] | 10 to 1000 |
| 1000 to 5000 | O=C(NC[C@H](O)CN1CCc2cc(F)ccc2C1)c1cn2cc(C(F)(F)F)ncc2n1 [Example 84, (S)—N-(3-(6-fluoro-3,4-dihydroisoquinolin-2(1H)-yl)-2-hydroxypropyl)-6-(trifluoromethyl)imidazo[1,2-a]pyrazine-2-carboxamide] | 1000 to 5000 |
| 10 to 1000 | Cn1cc(-c2ccc3nc(C(=O)NC[C@H](O)CN4CCc5ccccc5C4)cn3n2)cn1 [Example 46, (S)—N-(3-(3,4-dihydroisoquinolin-2(1H)-yl)-2-hydroxypropyl)-6-(1-methyl-1H-pyrazol-4-yl)imidazo[1,2-b]pyridazine-2-carboxamide] | 10 to 1000 |
| 1000 to 5000 | CN(C[C@H](O)CN1CCc2ccccc2C1)C(=O)c1cc2nc(C(F)(F)F)ccn2n1 [Example 90, (R)—N-(3-(3,4-dihydroisoquinolin-2(1H)-yl)-2-hydroxypropyl)-N-methyl-5-(trifluoromethyl)pyrazolo[1,5-a]pyrimidine-2-carboxamide] | > 5000 |
| 1000 to 5000 | CN(C[C@H](O)CN1CCc2ccccc2C1)C(=O)c1cn2nc(C(F)(F)F)ccc2n1 [Example 91, (R)—N-(3-(3,4-dihydroisoquinolin-2(1H)-yl)-2-hydroxypropyl)-N-methyl-6-(trifluoromethyl)imidazo[1,2-b]pyridazine-2-carboxamide] | > 5000 |
| 10 to 1000 | CC(C)c1nc(-c2ccc3nc(C(=O)NC[C@H](O)CN4CCc5ccccc5C4)cn3c2)no1 [Example 24, (S)—N-(3-(3,4-dihydroisoquinolin-2(1H)-yl)-2-hydroxypropyl)-6-(5-isopropyl-1,2,4-oxadiazol-3-yl)imidazo[1,2-a]pyridine-2-carboxamide] | 10 to 1000 |
| 10 to 1000 | O=C(NC[C@H](O)CN1CCc2ccccc2C1)c1cn2cc(C3CCOCC3)ccc2n1 [Example 26, (S)—N-(3-(3,4-dihydroisoquinolin-2(1H)-yl)-2-hydroxypropyl)-6-(tetrahydro-2H-pyran-4-yl)imidazo[1,2-a]pyridine-2-carboxamide] | 10 to 1000 |
| 10 to 1000 | Cc1c(C(=O)NC[C@H](O)CN2CCc3ccccc3C2)nc2cnc(-c3cnn(C)c3)cn12 [Example 64, (S)—N-(3-(3,4-dihydroisoquinolin-2(1H)-yl)-2-hydroxypropyl)-3-methyl-6-(1-methyl-1H-pyrazol-4-yl)imidazo[1,2-a]pyrazine-2-carboxamide] | 10 to 1000 |
| 10 to 1000 | CN(C[C@H](O)CN1CCc2ccccc2C1)C(=O)c1cn2cc(C(F)(F)F)ccc2n1 [Example 88, (R)—N-(3-(3,4-dihydroisoquinolin-2(1H)-yl)-2-hydroxypropyl)-N-methyl-6-(trifluoromethyl)imidazo[1,2-a]pyridine-2-carboxamide] | 10 to 1000 |
| 10 to 1000 | Cn1cc(-c2ccc3nc(C(=O)NC[C@H](O)CN4CCc5ccccc5C4)cn3c2)ccc1=O [Example 34, (S)—N-(3-(3,4-dihydroisoquinolin-2(1H)-yl)-2-hydroxypropyl)-6-(1-methyl-6-oxo-1,6-dihydropyridin-3-yl)imidazo[1,2-a]pyridine-2-carboxamide] | 10 to 1000 |
| 10 to 1000 | Cc1ncc(-c2ccc3nc(C(=O)NC[C@H](O)CN4CCc5ccccc5C4)cn3c2)s1 [Example 31, (S)—N-(3-(3,4-dihydroisoquinolin-2(1H)-yl)-2-hydroxypropyl)-6-(2-methylthiazol-5-yl)imidazo[1,2-a]pyridine-2-carboxamide] | 10 to 1000 |
| 1000 to 5000 | O=C(NC[C@H](O)CN1CCc2ccccc2C1)c1cn2nc(C(F)(F)F)ccc2n1 [Example 50, (S)—N-(3-(3,4-dihydroisoquinolin-2(1H)-yl)-2-hydroxypropyl)-6-(trifluoromethyl)imidazo[1,2-b]pyridazine-2-carboxamide] | 1000 to 5000 |
| 1000 to 5000 | O=C(NC[C@H](O)CN1CCc2ccccc2C1)c1cc2nc(C(F)(F)F)ccn2n1 [Example 60, (S)—N-(3-(3,4-dihydroisoquinolin-2(1H)-yl)-2-hydroxypropyl)-5-(trifluoromethyl)pyrazolo[1,5-a]pyrimidine-2-carboxamide] | 1000 to 5000 |
| 10 to 1000 | Cc1nc(-c2ccc3nc(C(=O)NC[C@H](O)CN4CCc5ccccc5C4)cn3c2)sc1C [Example 32, (S)—N-(3-(3,4-dihydroisoquinolin-2(1H)-yl)-2-hydroxypropyl)-6-(4,5-dimethylthiazol-2-yl)imidazo[1,2-a]pyridine-2-carboxamide] | 10 to 1000 |
| > 5000 | O=C(NC[C@H](O)CN1CCc2ccccc2C1)c1nn2ccc(C(F)(F)F)nc2c1F [Example 68, (S)—N-(3-(3,4-dihydroisoquinolin-2(1H)-yl)-2-hydroxypropyl)-3-fluoro-5-(trifluoromethyl)pyrazolo[1,5-a]pyrimidine-2-carboxamide] | > 5000 |
| 10 to 1000 | CC(=O)N1CCC(c2ccc3nc(C(=O)NC[C@H](O)CN4CCc5ccccc5C4)cn3c2)CC1 [Example 27, (S)-6-(1-acetylpiperidin-4-yl)-N-(3-(3,4-dihydroisoquinolin-2(1H)-yl)-2-hydroxypropyl)imidazo[1,2-a]pyridine-2-carboxamide] | 10 to 1000 |
| 10 to 1000 | O=C(NC[C@H](O)CN1CCc2ccccc2C1)c1cn2cc(C(F)(F)F)ncc2n1 [Example 53, (S)—N-(3-(3,4-dihydroisoquinolin-2(1H)-yl)-2-hydroxypropyl)-6-(trifluoromethyl)imidazo[1,2-a]pyrazine-2-carboxamide] | 1000 to 5000 |
| 10 to 1000 | O=C(NCC(O)CNC1Cc2ccccc2C1)c1cn2cc(C3CCOCC3)ccc2n1 (stereo not drawn) [Example 97, N-(3-((2,3-dihydro-1H-inden-2-yl)amino)-2-hydroxypropyl)-6-(tetrahydro-2H-pyran-4-yl)imidazo[1,2-a]pyridine-2-carboxamide] | 10 to 1000 |
| 10 to 1000 | CC(=O)N1CCC(c2cn3cc(C(=O)NC[C@H](O)CN4CCc5ccccc5C4)nc3cn2)CC1 [Example 52, (S)-6-(1-acetylpiperidin-4-yl)-N-(3-(3,4-dihydroisoquinolin-2(1H)-yl)-2-hydroxypropyl)imidazo[1,2-a]pyrazine-2-carboxamide] | 10 to 1000 |
| 1000 to 5000 | Cn1cc(-c2ccn3nc(C(=O)NC[C@H](O)CN4CCc5ccccc5C4)cc3n2)cn1 [Example 62, (S)—N-(3-(3,4-dihydroisoquinolin-2(1H)-yl)-2-hydroxypropyl)-5-(1-methyl-1H-pyrazol-4-yl)pyrazolo[1,5-a]pyrimidine-2-carboxamide] | 1000 to 5000 |
| 10 to 1000 | O=C(NC[C@@H](O)[C@H](O)CN1CCc2ccccc2C1)c1cn2cc(C(F)(F)F)ccc2n1 [Example 77, N-((2R,3R)-4-(3,4-dihydroisoquinolin-2(1H)-yl)-2,3-dihydroxybutyl)-6-(trifluoromethyl)imidazo[1,2-a]pyridine-2-carboxamide] | 10 to 1000 |
| 10 to 1000 | Cc1ccc(-c2ccc3nc(C(=O)NC[C@H](O)CN4CCc5ccccc5C4)cn3c2)cn1 [Example 29, (S)—N-(3-(3,4-dihydroisoquinolin-2(1H)-yl)-2-hydroxypropyl)-6-(6-methylpyridin-3-yl)imidazo[1,2-a]pyridine-2-carboxamide] | 10 to 1000 |
